Results on one molecule are retold here after patent US8754047B2, “Peptide compositions and methods of use” (The Research Foundation for the State University of New York, priority 2008, dated 2014).

pIC50: −log10 of the molar value. Positions of bridges follow the written chain, without caps; N, C: chain ends. Residues, ends and D or L forms follow the SMILES beside them.

Broadly, the viability is the share of living cells, or the viability signal relative to a control. Low values mean a greater loss of cells, high ones better survival.

One data set in a line: in vitro. Particulars: human, NCM460 normal colon epithelial cells.
Data set [1] addresses T1, thioredoxin reductase (Rattus norvegicus, UniProt O89049).
T1 sequence (O89049 1-499): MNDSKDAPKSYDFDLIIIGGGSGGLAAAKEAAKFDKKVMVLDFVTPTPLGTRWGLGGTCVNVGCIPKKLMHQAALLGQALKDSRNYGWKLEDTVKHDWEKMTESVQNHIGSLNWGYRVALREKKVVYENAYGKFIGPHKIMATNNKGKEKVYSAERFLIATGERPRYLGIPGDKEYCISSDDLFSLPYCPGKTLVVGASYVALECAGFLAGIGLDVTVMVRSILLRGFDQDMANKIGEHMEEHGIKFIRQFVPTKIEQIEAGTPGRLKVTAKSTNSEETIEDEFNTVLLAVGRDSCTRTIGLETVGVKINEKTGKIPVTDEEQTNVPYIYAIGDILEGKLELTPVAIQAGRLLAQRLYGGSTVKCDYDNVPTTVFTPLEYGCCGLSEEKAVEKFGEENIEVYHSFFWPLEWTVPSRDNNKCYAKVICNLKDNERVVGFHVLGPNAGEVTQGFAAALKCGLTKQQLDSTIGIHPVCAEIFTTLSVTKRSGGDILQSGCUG
As to the kind of experiment: biochemical.
Method: (§4) The activity was determined based on the change in absorbance (ΔA412) per minute (ΔA412/min).

The test system of data set [2] is SW480 human colon cancer cells. As to the kind of experiment: In vitro cell viability assay by MTT / cell Titer-Glo, SW480. The protocol:
(§1) 10,000 HT29 or SW480 human colon cancer cells, BxPC-3 human pancreatic cancer cells, and MCF7 and MDA-MB-231 breast cancer cells were obtained from American Type Culture Collection (ATTC), Manassas, Va., and were seeded in separate 96-well plates. After treatment with various concentrations (6.25 μM, 12.5 μM, 25 μM, 50 μM, 100 μM, or 200 μM) of test peptide for 24 h, cells were stained with MTT (3-(4,5-Dimethyl-2-thiazolyl)-2,5-diphenyl-2H-tetrazolium bromide, from Sigma-Aldrich) following the instructions of the manufacturer. Before dissolving MTT in SDS, the HT29 and SW480 cells were photographed using a digital camera connected with a phase-contrast microscope. (FIG. 2A1-8, and FIG. 2B1-6). Cells that are alive convert MTT into formazan in their active mitochondria and appear dark purple; dead cells are not stained by MTT and appear colorless.
(§2) The IC50 is the concentration of the test agent that inhibits cell growth by 50% at 24 hours of exposure. IC50s were determined using the MTT assay or using the cell Titer-Glo method and following the instructions of the manufacturer ([…]). […] (Sun, Y., and Rigas, B., (2008), Cancer Res., 68(20): 8269-8277).
The effect of peptide YJB02 on SW480 colon cancer cells was compared to the effect of peptide YJB02 on the normal human colon epithelial cell line NCM460. […] The viability was determined as described in Example 2.

The test system of data set [3] is SW480 human colon cancer xenografts. As to the kind of experiment: SW480 human colon cancer xenografts in nude mice, tumor volume. It is filed as in vivo. The note with it: 500 μg/day intraperitoneally for 19 days. The procedure: Xenografts were generated as described in FIG. 3A-B and Example 3 except where noted. Each animal had two xenografts, one on its right flank and one on the left. In these studies, the effect of two doses of YJB01, 100 μg and 500 μg per animal were evaluated. The doses were administrated intraperitoneally once a day dissolved in phosphate buffered saline (PBS). Control animals were injected with PBS. Tumor volume was determined as described in Example 3. Tumor volume is expressed as mean±SEM.
Xenografts were generated as described in the Example 3 except where noted. Each animal had two xenografts, one on its right flank and one on the left. In these studies, the effect of two doses of YJB01, 100 μg and 500 μg per animal were evaluated. The doses were administrated intraperitoneally once a day dissolved in phosphate buffered saline (PBS). Control animals were injected with PBS. Tumor volume was determined as described in Example 3. Tumor volume is expressed as mean±SEM.
Xenografts were generated as described in the Example 3 except that 8 Balb/c nude mice in each group were used in this experiment. Nude mice bearing SW480 xenografts were treated with 500 μg/day of YJB02 for 19 days. The doses were administrated intraperitoneally once a day dissolved in phosphate buffered saline (PBS). Control animals were treated with PBS.
Tumor volume was determined as described in Example 3. Tumor volume was monitored and graphed as set forth in FIG. 9A, and is expressed as mean±SEM.
For orientation: Xenograft models place foreign cells or tissue in a host animal.

Data set [4] deals with SW480 tumor cells. As to the kind of experiment: TUNEL staining of xenograft tumor tissue for apoptosis. The note with it: tumors of mice treated 500 μg/day for 19 days. It is filed as in vivo, nude mice. The protocol:
(§3) Tumor tissue from the mice treated with PBS or YJB02 as described in Example 8 were utilized in this experiment. Cell death was determined by terminal deoxynucleotidyl transferase dUTP nick end labeling (TUNEL) staining sections of paraffin embedded tissues, as previously described (Ouyang, N., Williams, J. L., Tsioulias, G. J., Gao, J., Iatropoulos, M. J., Kopelovich, L., Kashfi, K., and Rigas, B. 2006. Nitric oxide-donating aspirin prevents pancreatic cancer in a hamster tumor model. Cancer Res 66:4503-4511). Cell proliferation was determined by staining sections of paraffin embedded tissues for Ki-67 (Santa Cruz Biotechnology, Calif.) as previously described (Id.)
Slides were stained with TUNEL kit for apoptosis (available from Roche Applied Science, Indianapolis, Ind., US).

The test system of data set [5] is SW480 tumor cells. As to the kind of experiment: Ki-67 staining of xenograft tumor tissue for cell proliferation. It is filed as in vivo, nude mice. Particulars: tumors of mice treated 500 μg/day for 19 days. The protocol:
as §3
Tissue slides from control or YJB02 treated tumors were stained with anti-Ki67 antibody (Santa Cruz Biotechnology, Santa Cruz, Calif., US). As shown in the lower panel of FIG. 10, YJB02 inhibited tumor cell proliferation. […] Slides were counter-stained with hematoxylin.

Data set [6] concerns BxPC-3 human pancreatic cancer cells. The note with it: read-out: IC50s, BxPC3; inhibits cell growth by 50% at 24 hours of exposure; MTT or cell Titer-Glo. The protocol:
as §1, §2
(In general: Cellular ATP, detected with luciferase, serves as a proxy for viable cell number.)

Data set [7] deals with MDA-MB-231 breast cancer cells. The note with it: read-out: IC50s, MDA-MB-231; inhibits cell growth by 50% at 24 hours of exposure; MTT or cell Titer-Glo. The procedure:
as §1, §2

Another data set concerns MCF7 breast cancer cells. The note with it: read-out: IC50s, MCF7; inhibits cell growth by 50% at 24 hours of exposure; MTT or cell Titer-Glo. The protocol:
as §1, §2

The target in data set [8] is T1, thioredoxin reductase.
Method: as §4

`CC[C@H](C)[C@H](NC(=O)[C@H](CCCCN)NC(=O)[C@@H](NC(=O)[C@H](CCC(N)=O)NC(=O)[C@H](CCCNC(=N)N)NC(=O)[C@@H]1CCCN1C(=O)[C@@H](NC(=O)[C@@H]1CSSC[C@H](NC(=O)[C@@H](NC(=O)CN)[C@@H](C)O)C(=O)N[C@@H](C(C)C)C(=O)N[C@@H](CC(N)=O)C(=O)N[C@@H](C(C)C)C(=O)NCC(=O)N1)[C@@H](C)CC)[C@@H](C)CC)C(=O)N[C@@H](Cc1c[nH]c2ccccc12)C(=O)N[C@@H](Cc1ccccc1)C(=O)N[C@@H](CCC(N)=O)C(=O)N[C@@H](CC(N)=O)C(=O)N[C@@H](CCCNC(=N)N)C(=O)N[C@@H](CCCNC(=N)N)C(=O)N[C@@H](CCSC)C(=O)N[C@@H](CCCCN)C(=O)N[C@@H](Cc1c[nH]c2ccccc12)C(=O)N[C@@H](CCCCN)C(=O)N[C@@H](CCCCN)C(=O)O` [YJB02] (H-GTCVNVGCIPRQIKIWFQNRRMKWKK-OH; disulfide 3-8; N-terminus and C-terminus assumed) registered a viability at 24 h, 200 μmol/L in “in vitro” of 75%. In addition, the pIC50 was 7.44 against thioredoxin reductase [1]; above 4.90 in data set [2] (read-out: IC50s, SW480, inhibits cell growth by 50% at 24 hours of exposure, MTT or cell Titer-Glo); 4.12 to 4.44 in data set [6]; 3.61 in [7]; 3.67 with MCF7 breast cancer cells. Moreover, the “SW480 cells remained viable” value in data set [2] (200 μmol/L, 24-hour treatment) is on record as 20%. The molecule further yielded a tumor volume in [3] (day 19, control 635 mm^3) of 207 mm^3. Also, the “reduction in SW480 tumor growth” value in data set [3] (vs control) is recorded as 67%. In the data set on SW480 tumor cells [4], the “TUNEL (+) cells in tumor tissue” value is “induced more TUNEL (+) cells than control tumors”. Moreover, the “Ki67 (+) signals in tumor tissue” value in the data set with SW480 tumor cells [5] was “dramatically decreased”. Further, the “thioredoxin reductase activity, ΔA412/min” value on thioredoxin reductase [8] was “decreased by YJB02 in a dose dependent manner”.
